The subject of data set [1] is mutant TgUPRT (triple mutants 3×MT, M166A/A168G/Y228A and M166A/A168G/Y228G) in HEK293 cells. In words: In-cell RNA incorporation by mutant TgUPRT, streptavidin dot blot. The data set is classed as cell-based, Toxoplasma gondii. The protocol: Transfection, labeling of cellular RNA and RNA isolation: After 48h seeding, HEK293 cells were transfected with 2.5 μg of TgUPRT WT or mutant plasmids (pKN-CMV-TgUPRT-WT or -Mutt to Mut17) per 5 cm plate using JetPrime Transfection reagent (Polyplus Transfection, France). At 40h post-transfection, cells were incubated with a final concentration of 200 μM at <1% DMSO from 400 mM stock of uracil analogs (5EU, 5VU, 5AU) or 200 mM SAMU stock for 5 h. For time course study, HEK cells were treated with 200 μM uracil analogs for 0 h, 0.5, 1, 3, 5, 12 and 24 hours. For titrating uracil analog concentration experiments, HEK cells were treated with 0 (DMSO), 50, 100, 200, 500 μM or 1 mM uracil analog for 5h. Treated HEK cells were subjected to total RNA extraction using 1 mL Trizol Reagent (Invitrogen) following the manufacturer instructions.
Biotinylation via CuAAC and IEDDA: Cu-mediated Azide-Alkyne cycloaddition (CuAAC) click reactions were performed in 50 μL reaction at 22° C. on a shaker for 30 min with click reaction cocktail containing 15 μg of total RNA, 1 mM biotin alkyne or biotin azide, fresh 4.6 mM THPTA to a final concentration of 1 mM, and fresh 10.6 mM sodium ascorbate (NaAsc) at final concentration of 1.77 mM, and 12 mM CuSO4 at final concentration of 200 μM in biotinylation reaction buffer (10 mM TrisHCI, 1 mM EDTA, pH7.4). The biotinylated RNA was purified using RNA clean & Concentrator-5 kit (Zymo Research, Cat #R1013) according to the manufacturer instructions and eluted in 21 μL of nuclease free water.
Inverse electron demand [4+2] Diels-Alder cycloaddition (IEDDA) click reactions were performed in 50 μL at 37° C. or 22° C. (RT) for 3h on mixer at 500 rpm containing 10-15 μg of total RNA, 1 mM final concentration of biotin-benzyl tetrazine (Sigma Aldrich, Cat #793329-5MG) in nuclease free water. Clicked total RNA was purified using RNA clean & Concentrator-5 kit (Zymo Research, Cat #R1013) according to the manufacturer instructions, and RNA was eluted in 21 μL of nuclease free water.
HRP-streptavidin dot blot analysis: All gel reagents were from Bio-Rad. […]

For another data set, the system named is HEK cells. In words: Trypan blue cell viability / proliferation. The data set is classed as cell-based. The note with it: triple mutant TgUPRT + 5VU 200 μM, 5, 16, 24h, versus untreated cells, FIG. 11. The protocol:
Equal amount HEK cells (2×10^5) were seeded in a 6-well plate with 2 mL media. Twenty-four hour […], HEK cells were transfected with 1 μg empty plasmid (No GFP nor TgUPRT), double (2×MT) or triple (3×MT) TgUPRT mutants. 5VU was added to cells at 200 μM final concentration for 5, 16 and 24h treatment so that by the time cells were assayed with Trypan blue, they underwent 48h post transfection. DMSO (carrier) treatment (negative control) was done for 24h. Cells were stained with 0.04% Trypan blue for 5 minutes and subjected to cell counting using Countess II FL (Invitrogen, USA). Per condition, counting was done with n=2× biological and 3× technical replicates.

Each structure is given as a SMILES string.

With `C=Cc1c[nH]c(=O)[nH]c1=O` [compound 2, 5-Vinylpyrimidine-2,4(1H,3H)-dione], the “analog incorporation over time with mutant TgUPRT enzymes” value in data set [1] (200 μM time course to 24 h, in comparison to wild-type) is on record as “much more robust over time”. The “time at which analog incorporation was observed” value in data set [1] (200 μM time course, dot blot, FIG. 9B) is recorded as 0.5 hr. For the same molecule, the “incorporation into RNA by triple mutants (3×MT)” value in data set [1] (200 μM, 5 hours, HEK293T) is recorded as “robust incorporation”. Further, the “cell viability, Trypan blue” value in the data set on HEK cells was “non-significant differences to untreated cells”.
